{"source": "patent US20050055748A1", "about": "“Stress-responsive genes, regulatory elements, and methods of use for same” (priority 2003, published 2005)", "assay_type_in_all_cases": "cell-based, Zea mays", "key": {"[1]": {"tested_on": "ZmGOLS2", "assay": "ZmGOLS2 gene expression in maize Hi-II callus (northern blot, RPA)", "conditions": "for ZmGOLS2 mRNA in stressed callus (FIG. 7A): 2% sucrose plus 0.01% myo-inositol or 7.8% mannitol, dehydration 4 h or heat 42° C. 24 h", "protocol": "(§1) Maize Hi-II callus cultures were initiated according to Armstrong and Green (1985) from immature embryos isolated from Hi-II maize plants provided by Pioneer. Cultures were incubated in the dark at 25° C. on solid N6 medium containing 2% (w/v) sucrose (Chu et al., 1975) amended with 2 mg/L 2,4-dichlorophenoxyacetic acid, 25 mmol/L L-proline, and 10 μmol/L AgNO3, pH 5.8 (N6S2 medium) and sub-cultured every two weeks onto fresh media. For experimental treatments, approximately 2 g of cells (fresh weight) were added to each 100×15 mm plate. To determine the effect of various sugars and environmental stresses on the expression of ZmGOLS and ZmRAFS genes in maize Hi-II callus cells, callus was cultured on N6 media supplemented with different concentrations of sugars and: a) grown at 25° C. in the dark (control conditions); b) exposed to 42° C. for 24 h (heated); c) exposed to 4° C. for 24 h (chilled); or d) exposed to a current of air at 25° C. in a laminar flow hood for 4 h (dehydrated). To determine the responsiveness of ZmGOLS and ZmRAFS genes to exogenous ABA, calli were grown on media with 1, 10, and 100 μM cis, trans-ABA (Sigma) under control conditions for 1 d prior to harvest and RNA extraction.\n(§2) Sucrose and raffinose amounts in N6 media were altered, singly for sucrose or in combination with raffinose, to determine if RAFS substrates or the final product of the coordinate action of GOLS and RAFS influenced ZmGOLS and ZmRAFS gene expression. Because it is not known whether sucrose or raffinose are taken up into Hi-II cells directly or if they are hydrolyzed prior to uptake, glucose, fructose, galactose, and melibiose were also supplied. Myo-inositol (1,2,3,5-trans-4,6-hexahydroxy cyclohexane, Sigma), a GOLS substrate, was added to N6S2 media at amounts from 0.01-1% w/v. To determine if gene expression was regulated by osmotic stress, N6S2 media was amended with 0.1% to 7.8% w/v mannitol. Callus cells were also grown on N6 with combinations of sugars and the myo-inositol isomer, scyllo-inositol. All chemicals were sterilized by filtration and added to autoclaved media cooled to 65° C. just prior to pouring the plates. Hi-II callus cells on these various media were maintained under control conditions or subjected to stress (see above) prior to being harvested for sugar or RNA extraction or moisture content analysis. Cells were transferred to amended N6 media for 8 days, the environmental stress (if any) applied, and the cells harvested.\n(§3) Total RNA from seeds, regardless of treatment, was extracted according to Wan and Wilkins (1994). Total RNA (20 μg per lane) from seeds was transferred onto positively charged nylon membranes (Amersham Life Science Inc., Arlington Heights, Ill., USA) in 10×SSC (1×SSC is 150 mM NaCl and 15 mM Na citrate pH 7) overnight, the blot dried and UV cross-linked at 50 mJoules on a GS genelinker UV chamber (Bio-Rad Laboratories, Hercules, Calif., USA). After rinsing the membranes for 5 min in 2×SSC, blots were placed in pre-hybridization solution (50% formamide, 5× Denhardt's solution (Denhardt 1966), 100 μg ml^−1 boiled, sheared salmon sperm DNA, 0.2% SDS, 6×SSC pH 7.0, Sambrook et al. 1989) for 4-6 h at 42° C. Randomly labeled, radioactive cDNA probes ([^32P] dCTP) were hybridized to the blots for at least 12 h at the same temperature as pre-hybridization. The primary wash was done in 2×SSC, 0.1% SDS, RT for 5 min, and repeated but at 65° C. for 30 min. The two final high stringency washes were in 0.2×SSC, 0.1% SDS at 65° C. for 30 min each. The hybridized probe was detected by autoradiography using Kodak X-OMAT X-ray film (Eastman-Kodak Ltd.) or on a phosphoimaging screen using a Phosphorlmager (Molecular Dynamics).\nThe high degree of sequence homology among ZmGOLS genes prompted verification of results from northern blot analysis using RPAs (RPA III, Ambion, Little Rock, Tex., USA). […]"}, "[2]": {"tested_on": "ZmRAFS1", "assay": "ZmRAFS1 gene expression in maize Hi-II callus (northern blot)", "conditions": "for ZmRAFS1 mRNA accumulation with myo-inositol or mannitol in the media (FIG. 8A): 2% sucrose plus 0.01% myo-inositol or 7.8% mannitol, control, dehydrated, 4 or 42° C.; for ZmRAFS1 expression, effect of raffinose or galactose: 4% sucrose plus raffinose (0.01-1%) or 0.33% galactose, 42° C. for 1 d (FIG. 8C)", "protocol": "as §1, §2, §3"}, "[3]": {"tested_on": "Hi-II maize cells", "assay": "Growth of Hi-II maize callus cells on media containing sucrose and raffinose, with or without dehydration stress", "conditions": "for Relative weight gain, Dehydration stressed: dried in a flowhood for 4 h; for Relative weight gain, Dehydration stressed / Relative weight gain, Control: increase in weight relative to initial weight, means of three replicates; for Relative weight gain, Control: no dehydration stress", "protocol": "Table 1. Growth of Hi-II maize cells in culture on media containing sucrose and raffinose. Hi-II cells were weighed, cultured on different media for 4 d, transferred to N6 medium, cultured for another 7 d, and re-weighed. For dehydration stress, Hi-II cells were weighed, cultured on different media for […] , dried in a flowhood for 4 h, subsampled for water content, returned to the initial media for 1 d, transferred to N6 medium, cultured for 7 days, and re-weighed. Growth rates (increase in weight relative to initial weight) and water contents (dry weight basis) are the means of three replicates. Analysis of variance and mean separations were calculated among media within a dehydration stress treatment.\nas §1\nSamples of Hi-II cells growing on N6S2 were weighed and placed on N6S2, N6S5, or N6S5 supplemented with 0.1% w/v raffinose. Callus was grown for 4 d at 25° C. on these various media. The callus on a particular medium was separated into two equal sub-samples and the fresh weight obtained. A sub-sample of half of the callus cells per plate for each medium was subjected to dehydration stress by removal from the medium and exposure to a current of air in a flow hood for 4 h. The remaining half of the callus cells were not exposed to stress. After 4 h dehydration stress the callus was placed back on its respective medium for an additional 22 h. Previously stressed and non-stressed calli were then transferred to N6S2 for one week. At the end of the week the calli were weighed again to determine how much growth had occurred during the week. The growth of the cells was expressed as the increase in fresh weight after one week of growth on N6S2 relative to the callus fresh weight 7 days earlier (Dennehey et al.; 1994). This experiment was repeated 3 times."}, "[4]": {"conditions": "unstressed cells on N6+2% (w/v) sucrose, 1, 10, 100 μM ABA, 1 d"}}, "note": "“Also recorded” adds a separate entry of the source.", "data": [{"compound": "O[C@H]1[C@H](O)[C@@H](O)[C@H](O)[C@@H](O)[C@H]1O", "note": "[myo-inositol, 1,2,3,5-trans-4,6-hexahydroxy cyclohexane]", "values": [{"measurement": "ZmGOLS2 mRNA in stressed callus (FIG. 7A)", "setting": "[1]", "value": "ZmGOLS2 mRNA accumulation"}, {"measurement": "ZmGOLS2 transcription, low myo-inositol", "setting": "[1]; dehydrated cells, 2% sucrose, 0.01-0.1% w/v", "value": "upregulated ZmGOLS2 transcription"}, {"measurement": "ZmGOLS2 transcription, high myo-inositol", "setting": "[1]; dehydrated cells, 2% sucrose, 1% w/v", "value": "repressed ZmGOLS2 transcription below that on 2% sucrose alone"}, {"measurement": "ZmRAFS1 mRNA accumulation with myo-inositol or mannitol in the media (FIG. 8A)", "setting": "[2]", "value": "did not elicit greater ZmRAFS1 mRNA accumulation with the exception of cells exposed to heat shock"}]}, {"compound": "OC[C@@H](O)[C@@H](O)[C@H](O)[C@H](O)CO", "note": "[mannitol]", "values": [{"measurement": "ZmGOLS2 mRNA in stressed callus (FIG. 7A)", "setting": "[1]", "value": "upregulated ZmGOLS2 gene expression when subjected to dehydration but not to heat stress"}, {"measurement": "ZmGOLS2 transcription, low mannitol", "setting": "[1]; dehydrated cells, 0.1-0.5% w/v", "value": "repressed ZmGOLS2 transcription below that present in cells grown on 2% sucrose alone"}, {"measurement": "ZmGOLS2 transcription, very high mannitol", "setting": "[1]; dehydrated cells, 7.8% w/v", "value": "upregulated ZmGOLS2 transcription"}, {"measurement": "ZmRAFS1 mRNA accumulation with myo-inositol or mannitol in the media (FIG. 8A)", "setting": "[2]", "value": "did not influence ZmRAFS1 gene expression"}]}, {"compound": "OC[C@H]1O[C@@](CO)(O[C@H]2O[C@H](CO)[C@@H](O)[C@H](O)[C@H]2O)[C@@H](O)[C@@H]1O", "note": "[5% sucrose, sucrose]", "values": [{"measurement": "Relative weight gain, Dehydration stressed", "setting": "[3]", "value": "1.37 ± 0.02", "unit": "b"}, {"measurement": "Relative weight gain, Control", "setting": "[3]", "value": "1.45 ± 0.04", "unit": "b"}]}, {"compound": "O=C[C@H](O)[C@@H](O)[C@@H](O)[C@H](O)CO", "note": "[galactose]", "values": [{"measurement": "ZmRAFS1 expression, effect of raffinose or galactose", "setting": "[2]", "value": "as effective as raffinose at repressing ZmRAFS1 expression at equal galactose molarities"}]}, {"compound": "O[C@H]1[C@H](O)[C@@H](O)[C@H](O)[C@@H](O)[C@@H]1O", "note": "[scyllo-inositol]", "values": [{"measurement": "ZmGOLS2 expression, low scyllo-inositol with high mannitol", "setting": "[1]; dehydrated cells, 2% sucrose (FIG. 7C)", "value": "did not alter the expression of ZmGOLS2 relative to similar concentrations of myo-inositol and mannitol"}]}, {"compound": "OC[C@H]1O[C@@](CO)(O[C@H]2O[C@H](CO)[C@@H](O)[C@H](O)[C@H]2O)[C@@H](O)[C@@H]1O", "note": "[2% sucrose, sucrose]", "values": [{"measurement": "Relative weight gain, Dehydration stressed", "setting": "[3]", "value": "1.35 ± 0.16", "unit": "b"}, {"measurement": "Relative weight gain, Control", "setting": "[3]", "value": "1.89 ± 0.17", "unit": "a"}]}, {"compound": "OC[C@H]1O[C@@](CO)(O[C@H]2O[C@H](CO)[C@@H](O)[C@H](O)[C@H]2O)[C@@H](O)[C@@H]1O", "note": "[sucrose]", "values": [{"measurement": "ZmRAFS1 gene expression, effect of sucrose and its monosaccharides", "setting": "[2]; heat-stressed callus, 2% (w/v) or greater sucrose (FIG. 8B, 8C)", "value": "up-regulated by sucrose"}]}, {"compound": "OC[C@H]1O[C@H](OC[C@H]2O[C@H](O[C@]3(CO)O[C@H](CO)[C@@H](O)[C@@H]3O)[C@H](O)[C@@H](O)[C@@H]2O)[C@H](O)[C@@H](O)[C@H]1O", "note": "[raffinose]", "values": [{"measurement": "ZmRAFS1 expression, effect of raffinose or galactose", "setting": "[2]", "value": "may inhibit the expression of ZmRAFS1 upon attaining a sufficient concentration"}, {"measurement": "callus mass accumulation", "setting": "[3]; 0.1% raffinose in medium with 5% sucrose, unstressed", "value": "prevented the detrimental effect of high sucrose on callus mass accumulation"}, {"measurement": "callus growth following dehydration stress", "setting": "[3]; 0.1% w/v raffinose with 5% sucrose, 4 h dehydration", "value": "grew as well as callus that had not been subjected to dehydration; also recorded: capable of alleviating dehydration-induced damage"}]}, {"compound": "CC1=CC(=O)CC(C)(C)[C@@]1(O)/C=C/C(C)=C\\C(=O)O", "note": "[ABA, abscisic acid]", "values": [{"measurement": "ZmGOLS2 gene expression in response to applied ABA", "setting": "[1]; [4]", "value": "not responsive to ABA"}, {"measurement": "ZmRAFS1 gene expression in response to applied ABA", "setting": "[2]; [4]", "value": "not induced beyond that of 2% sucrose alone"}]}]}
